Structures can show the parent of a compound that is named as a salt.
Legend:
[1] = cited from earlier work
angina pectoris patients = assay: efficacy and safety of landiolol hydrochloride in coronary angiography using MSCT; type: in vivo, human
Text: Evaluation of efficacy and safety of landiolol hydrochloride to the coronary angiography ability using MSCT:
In the imaging of MSCT, LightSpeed Ultra 16 (16-slices MSCT, manufactured by GE medical systems) was used.
As a Workstation, Advantage Workstation AW 4.2 (manufactured by GE Medical Systems) was used.
As an imaging analysis soft, CardIQ Analysis II manufactured by GE Medical Systems was used.
As contrast media, iomeprol 350 mgI/ml (brand name: Iomeron 350, manufactured by Eisai Co., Ltd., was used.
To four angina pectoris patients, was intravenously administered landiolol hydrochloride swiftly over a period of 1 minute (0.063 mg/kg/minute), followed by a sustained intravenous administration over a period of 10 minutes (0.02 mg/kg/minute).
The contrast media were administered 10 minutes after confirming that the heart rate was slowed down. The imaging timing was determined by a test injection method using contrast media. As a result of swift administration of iomeprol (10 ml) and saline (20 ml) sequentially, it took approximately average of 16 seconds for iomeprol to reach heart. Afterwards, iomeprol (70 ml) and saline (20 ml) were swiftly administered sequentially and in time with the timing when iomeprol reached heart, MSCT imaging was started.
Three-dimensional overall figures of coronary artery were grasped with (A), and then followed by evaluation of the lesion site with (B) and (C), optionally followed by addition of an orthogonal cross-section imaging of a coronary artery for further confirmation.
To the above four angina pectosis patients, landiolol hydrochloride was administered. […] The inhibition rate (%) was calculated by {(post-value/(pre-value)×100−100}.

Compound	half life in blood [1]	image quality of coronary angiography by MSCT (angina pectoris patients; after administration of landiolol hydrochloride, iomeprol contrast medium, 16-slices MSCT)	lowering of the blood pressure (safety) (angina pectoris patients; angina pectoris patients, after administration)	Heart rate after administration (angina pectoris patients; four angina pectoris patients (n = 4), i.v. 0.063 mg/kg/minute for 1 minute, then 0.02 mg/kg/minute for 10 minutes, before administration 61.0)	Systolic blood pressure after administration (angina pectoris patients; four angina pectoris patients (n = 4), i.v. 0.063 mg/kg/minute for 1 minute, then 0.02 mg/kg/minute for 10 minutes, before administration 173.3)
COC(=O)CCc1ccc(OCC(O)CNC(C)C)cc1 (centres unmarked) [esmolol hydrochloride, Methyl 3-[4-[2-hydroxy-3-(isopropylamino)propoxy]phenyl]propionic acid hydrochloride]	approximately 9 minutes	–	–	–	–
CC1(C)OC[C@@H](COC(=O)CCc2ccc(OC[C@@H](O)CNCCNC(=O)N3CCOCC3)cc2)O1 [landiolol hydrochloride, (−)-[(S)-2,2-dimethyl-1,3-dioxolan-4-yl]methyl-3-[4-[(S)-2-hydroxy-3-(2-morpholinocarbonylamino)ethylamino]propoxy]phenylpropionic acid hydrochloride]	–	extremely sharp	no excessive lowering of the blood pressure was found	54.8 min⁻¹	161.8 mmHg
